Tests used:
[1] = test system: ROCK2; assay: Quantitative RT-PCR of Rho kinase (ROCK2) mRNA in PZ-HPV-7 cells; type: cell-based, human
Protocol: […] After the incubation, total RNA is isolated by processing the PZ-HPV-7 cells with TRI REAGEANT (Molecular Research Center, INC., Cincinnati, Ohio, USA) and 1-bromo-3chloropropane (BCP). Isopropanol was used to precipitate the isolated RNA; ethanol (75%) was used to wash the unwanted solution. The samples were then air-dried for 15 minutes at the room temperature. The pellet was re-suspended in 20 μL of DEPC-water (Ambion). After the RNA isolation, total RNA (2 μg) was used for the reverse transcription to cDNA by High-Capacity cDNA Reverse Transcription Kits (Applied Biosystems).
Quantitation of Rho kinase and an internal reference gene (GAPDH) were done by fluorescence-based real-time detection (ABI PRISM 7900HT Sequence Detection System (Taqman); Applied Biosystems, Foster City, Calif.). The PCR reaction mixture consisted of 1× TaqMan Master Mix, 1× Probe/primers Assay Mix, 100 ng cDNA, and water containing a reference dye, to a final volume of 20 μL (all reagents from Applied Biosystems). Cycling conditions were 50° C. for 2 minutes, 95° C. for 10 minutes, followed by 40 cycles at 95° C. for 15 second and 60° C. for 1 minute. Gene expression values (relative mRNA levels) are expressed as ratios (differences between the Ct values) between the genes of interest and an internal reference gene (GAPDH) providing a normalization factor for the amount of RNA isolated from cells. This analysis was performed by 7900 HT SDS 2.2.1 software.

[2] = test system: cGMP; assay: Determination of cGMP in rat isolated prostate (radioimmunoassay); conditions: for cGMP levels: 1 hour
Protocol: Isolated prostate strips from Wistar rats were prepared to determine prostate levels of cGMP and cAMP. Briefly, prostate strips were respectively incubated with KMUP-1 (10-100 μM), sildenafil (100 μM), and zaprinast (100 μM) in 10 mL Tyrode solution aerated with 95% O2 and 5% CO2 for 1 hour. To examine the possible mechanisms of action of KMUP-1, the rat prostate was pretreated with ODQ (10 μM, sGC inhibitor) and SQ22536 (9-(tetrahydro-2-furanyl)-9H-purin-6-amine, 10 μM, adenylyl cyclase inhibitor) for 30 minutes before KMUP-1 was added. After the incubation, the prostate tissues were extracted with 1 mL of 0.1 N HCl. The extracts were then lyophilized for a further measurement of cyclic GMP or cyclic AMP of each sample, using commercially available radioimmunoassay kits (Amersham Pharmacia Biotech, Buckinghamshire, England).

[3] = test system: sGCa1; assay: Western blot of sGCa1 expression in rat prostate
Protocol: Prostate strips were incubated with KMUP-1 (10-100 μM), sildenafil (100 μM) and zaprinast (100 μM) in 10 mL Tyrode solution aerated with 95% O2 and 5% CO2 for 1 hour. To examine the possible mechanisms of KMUP-1 action, the rat prostate were pretreated with ODQ (10 μM), SQ22536 (10 μM) and RP-8pCPT-cGMPs (10 μM) for 30 minutes prior to the addition of KMUP-1 (100 μM).
(§1) In order to examine the expression of Rho kinase in prostate, the prostate strips were pre-incubated with phenylephrine (10 μM) for 30 minutes. After a pre-treatment of phenylephrine, KMUP-1 (10-100 μM) and Y-27632 (10 μM) were further incubated for 30 minutes. After the incubation time, the prostate were extracted with protein extraction reagent (Pierce Biotechnology, Inc., Rockford, Ill., USA.). The PZ-HPV-7 cells were incubated with and without KMUP-1 (0.1-10 μM) at 30 minutes, 8 and 24 hours. They were then washed rapidly with ice-cold PBS, incubated with protein extraction reagent, and scraped from the plates. The prostate tissues and cells were sonicated three times for 10 second each time and centrifuged at 13,000 rpm at 4° C. for 30 minutes. The protein concentrations of supernatants were determined, using bovine serum albumin as the standard. Tissue and cell extract protein were then boiled at a ratio of 4:1 with sample buffer (100 mM Tris, pH 6.8, 20% glycerol, 4% SDS, and 0.2% bromphenol blue). 40-60 μg protein was used in this experiment. Electrophoresis was performed using 10 or 12% SDS-polyacrylamide gel electrophoresis and then transferred to nitrocellulose membranes (Millipore Corporation, Billerica, Mass.). The membrane was blocked with Tris-buffered saline (20 mM Tris and 137 mM NaCl, pH 7.6) containing 0.1% Tween 20 (TTBS) and 5% non-fat milk at room temperature for 1 hour, washed with TTBS, and then incubated overnight at 4° C. in the appropriate primary antibody of PKG (Santa Cruz, 1:200), sGCa1 (Santa Cruz, 1:200), PKA (Abcam, 1:1000), ROCK2 (Upstate, 1:1000), and PDE5A (BD Biosciences, 1:1000), p21 (Upstate, 1:1000). The membranes were washed in TTBS before being incubated with horseradish peroxidase-conjugated antibody against mouse, goat, or rabbit IgG (Santa Cruz, 1:1000) for 1 hour. The membrane was then washed in TTBS and developed with the enhanced chemiluminescence (ECL) for the detection of the specific antigen. The intensity of the bands was measured by densitometry.

[4] = test system: p21; assay: Western blot of p21 protein in PZ-HPV-7 cells; type: cell-based, human; conditions: 1, 10 μM, until 24 hours
Protocol: as §1, with “The membrane was blocked with Tris-buffered saline (20 mM Tris and 137 mM NaCl, pH 7.6) containing 0.1% Tween 20 (TTBS) and 5% non-fat milk at room temperature for 1 hour, washed with TTBS, and then incubated overnight at 4° C. in the appropriate primary antibody of PKG (Santa Cruz, 1:200), sGCa1 (Santa Cruz, 1:200), PKA (Abcam, 1:1000), ROCK2 (Upstate, 1:1000), and PDE5A (BD Biosciences, 1:1000), p21 (Upstate, 1:1000). The membranes were washed in TTBS before being incubated with horseradish peroxidase-conjugated antibody against mouse, goat, or rabbit IgG (Santa Cruz, 1:1000) for 1 hour. The membrane was then washed in TTBS and developed with the enhanced chemiluminescence (ECL) for the detection of the specific antigen.” left out

Structure (SMILES): Cn1c(=O)c2c(ncn2CCN2CCN(c3ccccc3Cl)CC2)n(C)c1=O [KMUP-1, 7-[2-[4-(2-Chlorobenzene)piperazinyl]ethyl]-1,3-dimethyl xanthine]
- Rho kinase gene expression ([1]; 1 μM, 24 hours): 96.00±10.00 % of control
- Rho kinase gene expression ([1]; 1 μM, 48 hours): 90.00±10.05 % of control
- Rho kinase gene expression ([1]; 10 μM, 24 hours): 80.00±8.80 % of control
- Rho kinase gene expression ([1]; 10 μM, 48 hours): 66.00±5.80 % of control
- Rho kinase gene expression ([1]; 100 μM, 24 hours): 68.00±5.01 % of control
- Rho kinase gene expression ([1]; 100 μM, 48 hours): 52.00±7.01 % of control
- cGMP levels ([2]; 10 μM): 3.50±0.58 pmol mg^−1 protein
- cGMP levels ([2]; 100 μM): 7.50±0.79 pmol mg^−1 protein
- accumulation of cGMP ([2]; KMUP-1 100 μM in the presence of ODQ 10 μM): 2.54±0.73 pmol mg^−1 protein
- expression of sGCa1 ([3]; KMUP-1 100 μM after pretreatment of ODQ 10 μM for 30 minutes): significantly reduce
- expression of sGCa1 ([3]; KMUP-1 10-100 μM, sildenafil, zaprinast 100 μM, 1 hour): most potently induces
- production of p21 protein levels [4]: potently induces
